From patent US7371853 come the findings set out here.

For this data set the following is noted: amide bond, BOP, DCM, 25.0 °C.

Like-named read-outs stand apart in the source and are kept apart here.

As for `COC(=O)C1Cc2cccc(c2)OC[C@H](c2ccccc2)NC(=O)c2cc(cc(N(C)S(C)(=O)=O)c2)C(=O)N1` (some centres unmarked), for the setting “from COC(=O)C(N)Cc1cccc(OC[C@@H](NC(=O)c2cc(C(=O)O)cc(N(C)S(C)(=O)=O)c2)c2ccccc2)c1, 1.76 mM, 72.0 h”, the ring closure, yield of all isomers amounted to 62%.
Where the note is “from COC(=O)[C@H](Cc1cccc(OCCN)c1)NC(=O)c1cc(C(=O)O)cc(N(C)S(C)(=O)=O)c1, 2.0 h, 2 steps”, `COC(=O)[C@@H]1Cc2cccc(c2)OCCNC(=O)c2cc(cc(N(C)S(C)(=O)=O)c2)C(=O)N1` registered a ring closure, yield of all isomers of 30%.
